We go through 74 compounds from PubChem BioAssay AID179 (DTP/NCI, 2004).

pEC50, pIC50: −log10 of the molar value. Calls of active or inactive are those of the source.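 Rule for the calls: active = compounds giving half or more protection of infected cells from virus-caused growth loss, again on retest; inactive = the rest.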 Where only a bound is given, the exact number is not on record here.

The test system of this test is CEM cells HIV-1 protection, formazan growth assay. The experiment in a line: NCI AIDS Antiviral Assay. The following applies: for pIC50: measured here: growth of uninfected CEM cells. The essentials: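 Category rules: moderately active means at least 50% protection on retest, and confirmed active means 100% protection reproducibly. The underlying data came from a formazan growth assay in HIV-1-infected CEM cells.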

On to `COC(=O)C(=C/c1ccc(OC)cc1)/C(C(=O)O)=C(/C)c1ccccc1`, for which the pEC50 was less than 3.15.
For `C=CCSc1n[nH]c(=S)c2nc[nH]c12`, the pEC50 is less than 3.70 and the negative logarithm of the IC50 (pIC50) was 3.89.
For the compound `O=C(O)C1OC(n2cc([N+](=O)[O-])c(=O)[nH]c2=O)C(O)C1O` (stereo not given), the pEC50 was less than 3.70 and the negative-log IC50 (pIC50) was less than 3.70.
As for `O=C(O)c1ccc(N=Nc2ccc(/C=C/c3ccc(N=Nc4ccc(C(=O)O)cc4O)cc3S(=O)(=O)O)c(S(=O)(=O)O)c2)c(O)c1`, the pEC50 was less than 3.29 and the negative-log IC50 (pIC50) is 5.37.
For `CC(C)C(C(=O)O)C(=O)O`, the pEC50 was less than 3.70 and the negative logarithm of the IC50 (pIC50) was less than 3.70.
In the case of `CC(=O)[n+]1nc(-c2nc(N)nc(NC3C4CC5CC(C4)CC3C5)n2)oc1-c1ccc(Cl)cc1` (stereo not given), the pEC50 is less than 4.95 and the pIC50 was less than 4.95.
Take `Cc1ccc(S(=O)(=O)N2C3C=CC(C3)[C@@H]2C(Cl)(Cl)Cl)cc1` (stereo not given in full): the pEC50 was less than 3.70 and the pIC50 was 4.51.
Turning to `CN1C(=O)N/C(=C\c2ccc(S(=O)(=O)N/N=C/c3ccccc3)cc2)C1=O`, the pEC50 was less than 3.70 and the negative-log IC50 (pIC50) is 5.28.
For `O=C(O)/C=C\Sc1ccccc1C(=O)O`, in that order: less than 2.95 and less than 2.95.
Take `COc1ccc(/C(C#N)=C/c2cccc(N)c2)cc1`: the pEC50 is less than 3.70 and the pIC50 was 4.60.
For `CN(C)c1ccc(/C=C2\Cc3ccccc3C2=O)cc1`, the pEC50 is less than 4.84 and the pIC50 is less than 4.84.
Regarding `Cc1cn(CCCCOC(=O)NC(CCCN=C(N)N)C(=O)O)c(=O)[nH]c1=O` (stereo not given), the pEC50 was less than 3.70 and the negative logarithm of the IC50 (pIC50) was less than 3.70.
Regarding `O=P1(c2ccccc2)C=C(c2ccccc2)NC(c2ccccc2)=C1`, the result was inactive.
Regarding `CCCCCCCCCCCCCCCC(=O)OCC1OC(OC)C(NC(=O)N(CCCl)N=O)C(O)C1O` (stereo not given), the pEC50 is less than 4.48 and the pIC50 is 5.16.
`O=C1c2cn[nH]c2N=C(Nc2ccccc2)C1N=Cc1ccc([N+](=O)[O-])cc1` (stereo not given): the pEC50 is less than 3.70 and the negative logarithm of the IC50 (pIC50) is 3.99.
With `S=c1nc[nH]c2c1ccc1[nH]cnc12`, the pEC50 was less than 4.73 and the negative-log IC50 (pIC50) is less than 4.73.
In the case of `CC(=Nc1ccc(N(C)C)cc1)c1ccccc1`, the pEC50 was less than 3.70 and the negative logarithm of the IC50 (pIC50) was 4.54.
On to `OC1c2cccn2-c2cc(Cl)ccc2SC1c1ccccc1` (stereo not given), for which the pEC50 is less than 4.15 and the negative logarithm of the IC50 (pIC50) is 5.35.
Take `CCC1c2ccc3cc(OC)ccc3c2CCC1(C)C(=O)O` (stereo not given): the result was inactive.
As to `[Cu+2].[NH-]c1ccccc1C(=O)O.[NH-]c1ccccc1C(=O)O`, the pEC50 was less than 3.70 and the negative logarithm of the IC50 (pIC50) was 4.76.
On to `CCCS(=O)(=O)O`, for which the pEC50 is less than 3.70 and the pIC50 was less than 3.70.
For the compound `CCOC(=O)c1cn2c3c(cccc3c1=O)CC2`, the pEC50 is less than 3.88 and the negative logarithm of the IC50 (pIC50) is less than 3.88.
On to `Cc1occc1C(=S)Nc1ccc(Cl)c(C(=O)OC2CCCCC2)c1`, for which the negative logarithm of the EC50 (pEC50) is 7.92 and the pIC50 is 5.14.
Take `COCN(C)c1nc(N(C)C)nc(N(C)C)n1`: the pEC50 was less than 4.00 and the pIC50 was 4.15.
Consider `CC(=O)NNC(=S)/N=C/c1c(C)[nH]n(-c2ccccc2)c1=O`, for which the result was inactive.
For the compound `NNC(=S)NCCNC(=S)NN`, the pEC50 is less than 3.70 and the negative-log IC50 (pIC50) is less than 3.70.
For the compound `COc1ccc(CCc2ncc[nH]2)cc1OC`, the pEC50 was less than 3.21 and the negative-log IC50 (pIC50) was less than 3.21.
Regarding `CCN(CC)CC(C)Nc1cc(C)nc2c1ccc1c2ccc2c(NC(C)CN(CC)CC)cc(C)nc21` (stereo not given), the pEC50 is less than 3.42 and the pIC50 was 3.63.
Take `CN=C1CC2c3cc(OC)c(OC)cc3CCN2C2=C1C(=O)CC(C)(C)C2` (stereo not given): the pEC50 was less than 3.70 and the pIC50 was less than 3.70.
On to `O=C(O)c1cc2ccccc2c(=O)s1`, for which the pEC50 was less than 3.48 and the pIC50 was less than 3.48.
As to `COc1ccccc1NC(=O)C1=C(C)NC(C)=C(C(=O)Nc2ccccc2OC)C1c1ccc(C(C)C)cc1`, the outcome was inactive.
Turning to `CC1(C)SCc2nc3ncccc3n21`, the pEC50 is less than 2.91 and the pIC50 is 3.21.
For `CC1=C2OCS(=O)C2C2C(=O)N(c3ccccc3)C(=O)C2C1` (stereo not given), in that order: less than 3.10 and 3.30.
For `C[n+]1ccc(-c2nc(-c3cc[n+](C)cc3)nc(-c3cc[n+](C)cc3)n2)cc1`, in that order: less than 3.70 and 4.11.
For `Cc1ccc(-c2nc(SCC(=O)O)n[nH]2)cc1`, in that order: less than 3.00 and 3.15.
For the compound `c1ccc2c(c1)CCc1[nH]c3c(c1-2)-c1ccccc1CC3`, the pEC50 was less than 3.70 and the pIC50 is 4.51.
With `Cc1ccc(N2C=Nn3c(nc4sc5c(c4c3=O)CCCC5)C2)cc1`, the pEC50 is 4.60 and the pIC50 was 4.37.
For `CCS/C(SC)=C(/c1ccccc1)[P+](c1ccccc1)(c1ccccc1)c1ccccc1`, in that order: less than 4.70 and 6.45.
For the compound `C=C(C)CC(OC(=O)C(C)(C)C)c1ccccc1` (stereo not given), the result was inactive.
Take `Clc1ccc(CSc2nnc3c(n2)[nH]c2ccccc23)cc1`: the pEC50 is less than 3.70 and the pIC50 was 4.37.
Regarding `Cn1c(N)c(N=O)c(=O)n(C)c1=O`, the pEC50 is less than 3.70 and the pIC50 was less than 3.70.
Consider `COc1cccc(-c2nc(-c3cnccn3)n(C3OC(CO)C(O)C3O)n2)c1` (stereo not given), for which the pEC50 is less than 3.70 and the pIC50 was less than 3.70.
`O=S1(=O)C[C@H](O)[C@H](O)CS1`: the negative logarithm of the EC50 (pEC50) was 5.08 and the pIC50 was 4.12.
For `NC(=O)c1nnc2cc(F)ccc2c1N`, the pEC50 is less than 3.70 and the pIC50 was 4.13.
In the case of `OCCN(CCO)c1cccc(N(CCO)CCO)n1`, the outcome was inactive.
Consider `S=C(Nc1cccc2ccccc12)NN1CCCCCC1`, for which the pEC50 was less than 4.76 and the negative-log IC50 (pIC50) was less than 4.76.
As to `CN(C)CCCNC(=O)CCNC(=O)c1cc(NC(=O)c2cc(NC(=O)c3cc(NC(=O)c4nc(NC(=O)CCCNC(=O)c5cc(NC(=O)c6cc(NC(=O)c7cc(NC(=O)c8nccn8C)cn7C)cn6C)cn5C)cn4C)cn3C)cn2C)cn1C`, the negative logarithm of the EC50 (pEC50) is less than 3.85 and the pIC50 is 4.61.
As to `COc1cc(NC(=O)c2ccc(NC(=O)c3ccc(N)cc3)cc2)c(OC)cc1N=Nc1ccc(N=Nc2ccc3cc(S(=O)(=O)O)cc(S(=O)(=O)O)c3c2)c(C)c1`, the pEC50 is 4.71 and the negative-log IC50 (pIC50) was less than 4.00.
As for `O=C1c2cccc3cccc(c23)C(=O)N1O`, the pEC50 is less than 4.00 and the pIC50 was 5.13.
Turning to `FC(F)(F)c1cc(NC2=NCCN=C(Nc3cc(C(F)(F)F)cc(C(F)(F)F)c3)SS2)cc(C(F)(F)F)c1`, the pEC50 was less than 3.70 and the negative-log IC50 (pIC50) is 5.50.
As for `COC(=O)[C@H](Cc1c[nH]c2ccccc12)NP(=O)(OCCC#N)OCC1OC(n2cc(C)c(=O)[nH]c2=O)CC1N=[N+]=[N-]` (stereo not given in full), the pEC50 is 4.26 and the pIC50 was 3.73.
Consider `COCC12CN(C)C3C4C(OC)C1C3(C(OC)CC2O)C1CC2(O)C(OC)C(O)C4(OC(C)=O)C1C2OC(=O)c1ccccc1` (stereo not given), for which the outcome was inactive.
As for `CC(C)N(C(=O)c1cccc(C(=O)N(C(C)C)C(C)C)c1)C(C)C`, the pEC50 was less than 3.12 and the negative logarithm of the IC50 (pIC50) was 3.33.
Consider `O=C1NC(O)c2cc(Cl)cc(Cl)c2O1` (stereo not given), for which the result was inactive.
As to `Cc1ccc(/C(O)=C/c2nc3ccc([N+](=O)[O-])cc3nc2/C=C(\O)c2ccc(C)cc2)cc1`, the pEC50 was less than 4.00 and the pIC50 is 4.01.
For `CCc1nc(N)nc(N)c1-c1ccc(Cl)c(Cl)c1`, in that order: less than 3.70 and 5.84.
For `CN1C/C(=C\c2cccs2)C(O)/C(=C/c2cccs2)C1` (stereo not given), in that order: less than 3.70 and 3.94.
On to `O=C(NC1(C(=O)O)CC1c1ccccc1)c1ccccc1` (stereo not given), for which the pEC50 is less than 3.70 and the negative-log IC50 (pIC50) was less than 3.70.
Take `CCc1cccc(C)c1NC(C)=O`: the outcome was inactive.
Still for that read-out and setting: as for `[N-]=[N+]=NCC(CO)OCn1cc(Cc2cccc(OCc3ccccc3)c2)c(=O)[nH]c1=O` (stereo not given), the entry is “inactive”.
Consider `S=C(NNc1ccccc1Oc1ccccc1)NNc1ccccc1Oc1ccccc1`, for which the pEC50 is less than 4.00 and the negative logarithm of the IC50 (pIC50) is less than 4.00.
As for `CN(C)c1ccc(C(=C(c2ccc(N(C)C)cc2)c2ccc(N(C)C)cc2)c2ccc(N(C)C)cc2)cc1`, the pEC50 is less than 4.61 and the pIC50 is 6.00.
For `CCCCNCCC(SSSC(CCNCCCC)c1ccc(Cl)cc1)c1ccc(Cl)cc1` (stereo not given), the pEC50 is less than 3.70 and the pIC50 was 5.46.
For `OCCN1CCN(CC/C=C2\c3ccccc3Sc3ccc(Cl)cc32)CC1`, the pEC50 was less than 3.70 and the pIC50 is 4.99.
Regarding `O=c1onc(-c2ccccc2)c2ccccc12`, the pEC50 is less than 3.79 and the pIC50 is less than 3.79.
Consider `O=S(=O)(Nc1nc2ccccc2nc1Nc1cccc2ccccc12)c1ccccc1`, for which the pEC50 is less than 3.70 and the pIC50 was 4.80.
For `CCOC(=O)CC(=Nc1cc(C)on1)N(CC)CC`, the pEC50 is less than 3.17 and the pIC50 is less than 3.17.
Regarding `Cc1cn(C2CC(/[N+]([O-])=N\Nc3ccc([N+](=O)[O-])cc3)C(CO)O2)c(=O)[nH]c1=O` (stereo not given), the pEC50 was less than 3.70.
For the compound `O=C(Cc1nc2ccccc2s1)Nc1cccc(C(F)(F)F)c1`, the pEC50 is less than 4.67 and the pIC50 was 4.76.
With `COc1ccc2nc(NC(=O)C(=O)C(C(=O)c3ccccc3-c3ccccc3)C3OC(=O)c4ccccc43)sc2c1` (stereo not given), the pEC50 is less than 4.34 and the pIC50 was 4.60.
In the case of `COc1ccc(Nc2ccc([N+](=O)[O-])c3nonc23)cc1`, the pEC50 is less than 4.11 and the pIC50 is less than 4.11.
On to `CC(=O)N(C)OC(=O)CC(=O)c1ccccc1`, for which the pEC50 is less than 3.11 and the pIC50 was 3.18.
As for `COC(=O)C1=Nc2c(C)nn(-c3ccccc3)c2N=C(c2ccc([N+](=O)[O-])cc2)C1`, the pEC50 is less than 3.70 and the negative logarithm of the IC50 (pIC50) is less than 3.70.
In the case of `COC1=C(C)C(=O)c2nccc(C)c2C1=O`, the result was inactive.

For orientation: pEC50 means the negative decadic logarithm of the EC50, by convention in mol/L. By pIC50 is commonly meant −log10 of the IC50, conventionally taken in molar units.
